Experimental findings from US20250367170A1, “TOPICAL ANGIOTENSIN II RECEPTOR BLOCKERS (ARBS) FOR TREATING EYE CONDITIONS” (The Cleveland Clinic Foundation, priority 2022, published 2025) are described below.

Data set [1] relates to rabbit corneas after 1N NaOH alkali burn injury. Nature of the data set: Slit lamp stromal opacity area and intensity (ImageJ) one month after alkali burn. It counts as in vivo, New Zealand White rabbits. The note with it: topical 0.2 mg/ml losartan and/or 1% prednisolone acetate six times per day. The procedure: All animal treatments and care were approved by the Institutional Animal Care and Use Committee (IACUC) at the Cleveland Clinic Foundation (Cleveland, OH, USA) and the Animal Care and Use Review Office of the Department of the Army (Fort Detrick, MD). All rabbits were treated in accordance with the tenets of the ARVO Statement for the Use of Animals in Ophthalmic and Vision Research. Sixteen 10- to 15-week-old female New Zealand White rabbits weighing 2.5 to 3.0 kg each were included in this example.
(§1) Alkali injuries were produced in one eye of rabbits with previously published methods^10 using 1N sodium hydroxide (Sigma, St. Louis, MO) in balanced salt solution (BSS, 0.64% sodium chloride, 0.075% potassium chloride, 0.048% calcium chloride dihydrate, 0.03% magnesium chloride hexahydrate, 0.39% sodium acetate trihydrate, 0.17% sodium citrate dihydrate, pH 7.5, Alcon, Ft. Worth, TX) and a 5 mm diameter circular Whatman No. 1 filter paper (Cat #1001-6508, Fisher Scientific) wetted with 100 μl of 1N NaOH solution. Following the alkali burn injury, the cornea was irrigated profusely with BSS. Each injured cornea also received one drop of ciprofloxacin (Alcon, Ft. Worth, TX, USA) ten minutes after surgery and four times a day for one week and at least 15 minutes apart from the study medications.
(§2) Worth TX), at least 5 minutes apart, or 4) 50 μl of BSS.
At one month after sodium hydroxide exposure and treatments, with the rabbits under ketamine-xylazine general anesthesia, the eyes were dilated with two drops of 1% tropicamide (Akom Co., Lake Forest, IL) for thirty minutes. The study eye in each rabbit had slit lamp photographs with standardized illumination level and angle of illumination at 20× magnification with a Topcon (Oakland, NJ, USA) SL-D7 slit lamp photography system. For each study eye, the total area of opacity was determined by outlining the opacity with the freehand selection tool using ImageJ 1.53a analysis software calibrated to mm^2. The “raw internal density” in pixels for the opacified area in each cornea was also determined using ImageJ.

In the next data set the test system is TGF beta-1. Kind of data set: IHC TGF beta-1 in posterior stroma after Descemetorhexis. Type of data set: in vivo, New Zealand White rabbits. The note with it: topical and/or oral losartan. As to the method: (§3) Duplex immunohistochemistry (IHC) was performed after masking of slides by a researcher not involved in the analysis using previously described methods (de Oliveira et al., 2021) using primary antibodies (Table 2) confirmed by western blotting and IHC to recognize rabbit antigens or isotypic control antibodies (ThermoFisher Scientific, Waltham, MA), and secondary fluorescent tagged antibodies (Table 3).
The AB769 (Millipore, Temecula CA) collagen type IV antibody used in this study was generated against purified human and bovine collagen type IV, affinity purified with human and bovine collagen type IV crosslinked to agarose and cross-absorbed by the manufacturer with human and bovine collagens type I, II, III, V and VI to eliminate cross-reactivity. This antibody was shown previously to bind rabbit collagen IV in IHC (Sampaio et al., in press). The keratocan antibody was raised against peptide H2N-[…]-OH (SEQ ID NO:1).

Data set [2] relates to central corneal neovascularization (CNV). Kind of data set: Corneal angiography for central corneal neovascularization after alkali burn. The note with it: topical six times per day, one month, all four vehicle corneas positive. It counts as in vivo, New Zealand White rabbits. As to the method: as §1, §2
All corneas had fluorescent angiography at the peak of dye passage in the cornea immediately after injection of 1.5 ml of 10% sodium fluorescein (McKesson, Irvine, TX) in the central ear vein with the slit lamp system and digital camera system using a “barrier filter” that only transmitted 520-530 nm, the peak of fluorescein emission, with broad illumination of the cornea, as previously described.^11

The test system of data set [3] is α-smooth muscle actin (SMA) marker for myofibroblasts. Nature of the data set: IHC for SMA, area of SMA-positive posterior fibrotic stroma (QuPath) after Descemetorhexis. Type of data set: in vivo, New Zealand White rabbits. As to the method: At one month after surgery and treatment, an intravenous injection of 100 mg/kg Beuthanasia (Shering-Plough, Kenilworth, NJ) was given for euthanasia with the animals under general anaesthesia. Sharp Westcott scissors (Fairfield, CT, USA) and 0.12 forceps (Storz, St. Louis, MO) were used to remove the comeo-scleral rims of the sham unwounded and DMR eyes without touching the cornea. Each cornea was set in the center of a 24×24×5 mm mold (Fisher Scientific, Pittsburgh, PA, USA) and the mold was filled in liquid OCT compound (Sakura Finetek, Torrance, CA, USA). The molds and cornea-scleral rims were quick frozen on dry ice and stored at −80° C. until sections were cut.
Each OCT block was bisected in the exact center of the cornea, and 8 μm thick transverse sections were cut from the central cornea within the previous DMR injury or unwounded sham surgery corneas with a cryostat (HM 505M; Micron GmbH, Walldorf, Germany) and three sections per slide were placed on 25 mm×75 mm×1 mm Superfrost Plus microscope slides (Fisher Scientific, Pittsburgh, PA, USA). Slides were maintained at −20° C. until immunohistochemistry.
as §3
The area of the SMA-positive posterior fibrotic stroma was quantitated with the original groups masked to the analyzer by standardized photography with a lOx objective on a Leica DM6B upright microscope equipped with an automated stage and Leica 7000 T camera using the LAS X software (Leica Microsystems, GmbH, Wetzlar, Germany). The area of the SMA-positive posterior stromal fibrosis was measured by manually outlining the area on the cornea sections with calibrated QuPath v0.2.3 software using previously described methods (Bankhead et al., 2017). Statistical analysis for the area of SMA-positive fibrosis was performed using the Kruskal-Wallis test followed by post-hoc Dunn's-Bonferroni test and p<0.05 was considered statistically significant.

For data set [4], the system named is collagen type IV. Kind of data set: IHC collagen type IV intensity in posterior stroma (ImageJ) after Descemetorhexis. Type of data set: in vivo, New Zealand White rabbits. The note with it: one month. The procedure:
as §3
The AB769 (Millipore, Temecula CA) collagen type IV antibody used in this study was generated against purified human and bovine collagen type IV, affinity purified with human and bovine collagen type IV crosslinked to agarose and cross-absorbed by the manufacturer with human and bovine collagens type I, II, III, V and VI to eliminate cross-reactivity. This antibody was shown previously to bind rabbit collagen IV in IHC (Sampaio et al., in press). […]
Collagen type IV intensity in immunohistochemistry images was quantitated in 0.75 W×0.5H rectangles of posterior stroma tangent to the posterior corneal surface using ImageJ on 7.62 cm wide×5.69 cm height and 300 DPI images generated using standardized microscopic illumination settings applied to all sections. The quantitation rectangles were positioned such that the posterior side of the rectangle was tangent to the posterior corneal surface just anterior to Descemet's membrane, if one was present, in the analysed specimens. […]

The test system of data set [5] is collagen type IV. Nature of the data set: IHC stromal collagen type IV pixels (ImageJ) one month after -9D PRK. It counts as in vivo, New Zealand white rabbits.
Procedure: Rabbits were euthanized while under ketamine-xylazine general anesthesia with 100 mg/kg Beuthanasia (Shering-Plough, Kenilworth, NJ, USA) by intravenous injection followed by bilateral pneumothorax. The corneo-scleral rims were removed with sharp Westcott scissors (Fairfield, CT, USA) and 0.12 forceps (Storz, St Louis, MO, USA). The corneo-scleral rim was then centered in a 24-mm×24-mm×5-mm mold (Fisher Scientific, Pittsburgh, PA, USA) that was filled with optimal cutting temperature (OCT) compound (Sakura Finetek, Torrance, CA, USA) and quick frozen on dry ice. Blocks were stored at −80° C. until sectioning. Blocks were bisected at the center of the cornea and 10-pm-thick transverse sections were cut from the central cornea with a cryostat (HM 505M; Micron 5 GmbH, Walldorf, Germany). Three sections from each cornea were placed on each 25-mm×75-mm×1-mm Superfrost Plus microscope slide (Fisher Scientific). Slides with sections were maintained at −20° C. prior to immunohistochemistry (IHC).
All images were converted to 300 DPI 900 pixel width×672 pixel height images with Photoshop 22.1.1 (Adobe, San Jose, CA). The mean pixels of stromal α-SMA or stromal collagen type IV were determined in a 900-pixel wide×235-pixel high rectangle (for either α-SMA or collagen type IV quantitation) with ImageJ in three sections for each cornea using the image panels showing only the color of interest. […]

`CCCCc1nc(Cl)c(CO)n1Cc1ccc(-c2ccccc2-c2nn[nH]n2)cc1` [losartan]: in data set [1], the “total corneal opacity area measured with ImageJ, vs BSS vehicle” value is reported as “decreased”. The “total opacity in pixels in the opacified area of cornea, vs vehicle BSS group” value in data set [1] is on record as “significantly lower”. Moreover, the “levels of TGF beta-1 in the posterior stroma or at the posterior stromal surface vs vehicle” value in the data set with TGF beta-1 is reported as “No effect”. For the same molecule, the “corneas (of four) that developed central corneal neovascularization” value in data set [2] is recorded as “two”. Also, the “posterior fibrosis compared with topical and oral vehicle” value in data set [3] (Descemetorhexis, oral 5 mg/kg three times per day, one month) is recorded as “similar”. Besides, the “mean SMA-positive posterior fibrotic area vs vehicles or topical and oral losartan” value in data set [3] (Descemetorhexis, oral losartan alone, one month) was “not statistically significantly different”. The “mean SMA-positive posterior fibrotic area compared to the other Descemetorhexis groups” value in data set [3] (Descemetorhexis, topical 0.1 mg/ml six times a day, one month) was “significantly lower”. Further, in data set [3] (Descemetorhexis, topical 0.1 mg/ml six times per day, one month), the “SMA-positive fibrotic zone in the posterior cornea” value was “marked decrease”. Further, the “SMA-positive fibrosis in the posterior cornea” value in data set [3] (Descemetorhexis, topical six times per day and oral three times per day, one month) is recorded as “decrease”. Also, the “SMA-positive posterior corneal fibrosis in uninjured corneas” value in data set [3] (oral three times a day) and in data set [3] (topical six times a day) was “did not develop” in each case. Also, the “posterior stromal collagen type IV production vs topical and oral vehicle” value in the data set on collagen type IV [4] (topical and oral losartan) is “significantly decreased”; in the data set on collagen type IV [4] (topical losartan), “significantly decreased”. Besides, in the data set with collagen type IV [5], the “collagen type IV detected in the underlying anterior stroma (IHC) compared with vehicle” value is “far smaller amounts”.
